# Target: recombinant human SYK360-635 (Homo sapiens (Human), UniProt P43405)
# Test: SYK kinase assay (33P ATP filtration, IC50 of SYK inhibition)
# Assay type: biochemical
# Conditions: truncated SYK aa 360-635 0.5 nM, ATP 20 μM, peptide 5 μM, 30° C. 15 min; read-out: ENZYME_FILTRATION_IC50
# Protocol: Determination of IC50 of Spleen Tyrosine Kinase (SYK) Inhibition:
# SYK kinase assay is a standard kinase assay adapted to a 96 well plate format. This assay is performed in 96-well format for IC50 determination with […] which represented 10 half log dilutions and a 40 μL reaction volume. The assay measures the incorporation of radiolabeled ^33P γATP into an N-terminally biotinylated peptide substrate, derived from naturally occurring phosphoacceptor consensus sequence (Biotin-11aa DY*E). Phosphorylated products were detected upon termination of reactions with EDTA and the addition of Streptavidin coated beads.
# Assay plates: 96-well MultiScreen 0.65 um filter plates (Millipore Cat. No.: MADVNOB10)
# final concentration: 50 mM HEPES pH7.5
# BSA: Bovine Serum Albumin Fraction V, fatty acid free (Roche Diagnostics GmbH, Cat. No. 9100221) diluted to a final concentration of 0.1%
# Assay Dilution Buffer (ADB): 50 mM HEPES, 0.1 mM EGTA, 0.1 mM Na Vanadate, 0.1 mM β-glycerophosphate, 10 mM MgCl2, 1 mM DTT, 0.1% BSA, pH 7.5
# Bead wash buffer: 10 g/L PBS (Phosphate buffered saline) with 2M NaCl+1% phosphoric acid.
# DMSO and the mixture was incubated for 10 min at RT.
# The kinase reaction was initiated by the addition of 10 μL 4× substrate cocktail containing the DYE peptide substrate [0 or 5 μM], ATP [20 μM] and ^33PγATP [2 μCi/r×n]. After incubation at 30° C. for 15 min, the reaction was terminated by the transfer of 25 μL of the reaction sample to a 96 well 0.65 μm Millipore MADVNOB membrane/plate containing 200 μL 5 mM EDTA and 20% Streptavidine coated beads in PBS.
# After the last wash membrane/plates were transferred to an adaptor plate, heat dried for 15 min at 60° C., and 50 μL scintillation cocktail was added to each well and 4 h later the amount of radioactivity was counted in a top counter.
row,SMILES,IC50 [nM]
1,"CCN(CC)CCOc1ccc(-c2cc(Nc3cccc(N4CCCC4C)n3)c3nccn3n2)cc1 (stereo not drawn) [Example I-92, {6-[4-(2-Diethylamino-ethoxy)-phenyl]-imidazo[1,2-b]pyridazin-8-yl}-[6-(2-methyl-pyrrolidin-1-yl)-pyridin-2-yl]-amine]",60.6
2,"COc1ccc(Nc2cc(-c3cccc(C(=O)O)c3)nn3ccnc23)nc1OC [Example I-95, 3-[8-(5,6-Dimethoxy-pyridin-2-ylamino)-imidazo[1,2-b]pyridazin-6-yl]-benzoic acid]",949
3,"CNC(=O)c1ccc(NC(=O)c2cccc(-c3cc(Nc4ccc(OC)c(OC)n4)c4nccn4n3)c2)cc1 [Example I-96, 3-(8-(5,6-Dimethoxypyridin-2-ylamino)imidazo[1,2-b]pyridazin-6-yl)-N-(4-(methylcarbamoyl)phenyl)benzamide]",103

# Reference: patent US9169259B2, “Imidazopyridazine compounds” (Hoffmann-La Roche Inc., priority 2011, dated 2015)
